Test results from paper PMC12724200 (mSphere, 2025).
Converted amounts (≈) assume the structure as drawn. Read-outs that look alike come from different tables or passages of the source.

How the values were obtained:
M. tuberculosis H37Rv = test: microbe, parasite or virus in culture; format: cell-based, Mycobacterium tuberculosis
M. bovis = test: microbe, parasite or virus in culture; format: cell-based, Mycobacterium bovis
M. bovis BCG Tokyo 172 [1] = test: microbe, parasite or virus in culture; format: cell-based, Mycobacterium bovis BCG
OCT313-resistant BCG = test: microbe, parasite or virus in culture; format: cell-based, Mycobacterium bovis BCG
M. avium 104 = test: microbe, parasite or virus in culture; format: cell-based, Mycobacterium avium
M. smegmatis mc^2 155 = test: microbe, parasite or virus in culture; format: cell-based, Mycobacterium smegmatis
Staphylococcus aureus = test: microbe, parasite or virus in culture; format: cell-based
Escherichia coli DH5α = test: microbe, parasite or virus in culture; format: cell-based
THP-1 = details: human
A549 = details: human
MRC-5 = details: human
[2] = biological target: recombinant wild-type M. bovis BCG PTA (Mycobacterium bovis, UniProt A0A679LAX5); test: biochemical; format: biochemical
M. bovis BCG Tokyo 172 [3] = format: cell-based, Mycobacterium bovis BCG
L. mesenteroides PTA = L. mesenteroides PTA (Leuconostoc mesenteroides, UniProt Q03W64); format: biochemical
[4] = system: OCT313-resistant BCG strains OCTR_3 and OCTR_4; format: cell-based, Mycobacterium bovis BCG
[5] = Mycobacterium tuberculosis, H37RV
[6] = Mycobacterium tuberculosis, H37RV, 336 h
[7] = Mycobacterium tuberculosis variant bovis, 336 h
[8] = Mycobacterium tuberculosis variant bovis BCG, BCG, 336 h
[9] = Mycobacterium avium, 104, 168 h
[10] = Mycolicibacterium smegmatis, MC^2155, 72 h

Sequence of recombinant wild-type M. bovis BCG PTA (A0A679LAX5 1-690): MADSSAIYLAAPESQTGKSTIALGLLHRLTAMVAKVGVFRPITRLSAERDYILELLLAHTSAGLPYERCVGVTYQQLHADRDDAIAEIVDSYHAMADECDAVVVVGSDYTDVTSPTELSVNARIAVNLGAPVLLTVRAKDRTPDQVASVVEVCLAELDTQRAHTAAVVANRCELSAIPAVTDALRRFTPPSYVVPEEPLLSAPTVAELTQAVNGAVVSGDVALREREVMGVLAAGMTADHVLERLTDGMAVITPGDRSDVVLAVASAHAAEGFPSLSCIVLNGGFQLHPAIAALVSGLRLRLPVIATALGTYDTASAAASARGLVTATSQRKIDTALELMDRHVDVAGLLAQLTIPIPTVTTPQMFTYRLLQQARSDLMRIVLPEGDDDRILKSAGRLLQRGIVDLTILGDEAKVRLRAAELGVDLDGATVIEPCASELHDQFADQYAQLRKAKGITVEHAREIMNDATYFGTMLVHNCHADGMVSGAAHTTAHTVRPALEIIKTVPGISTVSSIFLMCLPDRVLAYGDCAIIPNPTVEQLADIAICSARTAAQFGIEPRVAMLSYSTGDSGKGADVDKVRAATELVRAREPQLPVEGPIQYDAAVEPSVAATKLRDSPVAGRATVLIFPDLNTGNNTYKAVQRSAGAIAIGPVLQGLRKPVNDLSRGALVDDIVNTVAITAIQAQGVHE
Sequence of L. mesenteroides PTA (Q03W64 1-326): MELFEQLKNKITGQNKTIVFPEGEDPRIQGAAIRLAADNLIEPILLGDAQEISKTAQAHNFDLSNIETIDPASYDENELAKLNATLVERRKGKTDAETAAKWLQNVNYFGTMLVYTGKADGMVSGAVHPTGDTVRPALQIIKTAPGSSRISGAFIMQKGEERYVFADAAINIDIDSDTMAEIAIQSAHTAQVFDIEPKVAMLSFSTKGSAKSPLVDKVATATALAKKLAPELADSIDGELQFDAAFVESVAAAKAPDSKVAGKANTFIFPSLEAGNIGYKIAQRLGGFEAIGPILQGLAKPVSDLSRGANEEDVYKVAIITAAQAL

CC[C@@H](CO)NCCN[C@@H](CC)CO [EB, ethambutol]
MIC (M. tuberculosis H37Rv; [5]): 2.5 µg/mL (≈ 12.2 µM) | MIC (M. tuberculosis H37Rv; [6]): 2.5 µg/mL (≈ 12.2 µM) | MIC (M. bovis; [7]): 0.78 µg/mL (≈ 3.82 µM) | MIC (M. bovis BCG Tokyo 172 [1]; [8]): 3 µg/mL (≈ 14.7 µM) | MIC (OCT313-resistant BCG; [8]): 3 µg/mL (≈ 14.7 µM) | MIC (M. avium 104; [9]): 1.6 µg/mL (≈ 7.83 µM) | MIC (M. smegmatis mc^2 155; [10]): 12.5 µg/mL (≈ 61.2 µM) | MIC (Staphylococcus aureus; Staphylococcus aureus): > 100 µg/mL | MIC (Escherichia coli DH5α; Escherichia coli): > 100 µg/mL | 85% survival conc. (THP-1): 500 µg/mL | LC50/MIC (THP-1): 916 | 85% survival conc. (A549): 1,000 μg/mL | LC50/MIC (A549): 1,434 | 85% survival conc. (MRC-5): 250 µg/mL | LC50/MIC (MRC-5): 111

CC(=O)N[C@@H]1[C@@H](O)[C@H](O)[C@@H](CO)O[C@@H]1O [GlcNAc, N-acetyl-D-glucosamine]
MIC (M. tuberculosis H37Rv): >1,000 μg/mL | MIC (M. bovis): >1,000 μg/mL | MIC (M. bovis BCG Tokyo 172 [1]): >1,000 μg/mL | MIC (OCT313-resistant BCG): >1,000 μg/mL | MIC (M. avium 104): >1,000 μg/mL | MIC (M. smegmatis mc^2 155): >1,000 μg/mL | MIC (Staphylococcus aureus): >1,000 μg/mL | MIC (Escherichia coli DH5α): >1,000 μg/mL | Inhibition of PTA enzyme activity (in words) [2]: not sufficient to inhibit enzyme activity

NNC(=O)c1ccncc1 [INH, isoniazid]
MIC (M. tuberculosis H37Rv; [5]): 0.04 µg/mL (≈ 0.292 µM) | MIC (M. tuberculosis H37Rv; [6]): 0.04 µg/mL (≈ 0.292 µM) | MIC (M. bovis; [7]): 0.04 µg/mL (≈ 0.292 µM) | MIC (M. bovis BCG Tokyo 172 [1]; [8]): 0.04 µg/mL (≈ 0.292 µM) | MIC (OCT313-resistant BCG; [8]): 0.04 µg/mL (≈ 0.292 µM) | MIC (M. avium 104; [9]): 1.56 µg/mL (≈ 11.4 µM) | MIC (M. smegmatis mc^2 155; [10]): 3.13 µg/mL (≈ 22.8 µM) | MIC (Staphylococcus aureus; Staphylococcus aureus): > 100 µg/mL | MIC (Escherichia coli DH5α; Escherichia coli): > 100 µg/mL | Antibacterial activity in Wayne dormancy model (M. bovis BCG Tokyo 172 [3]): showed reduced activity | 85% survival conc. (THP-1): 100 µg/mL | LC50/MIC (THP-1): 53,613 | 85% survival conc. (A549): 1,000 μg/mL | LC50/MIC (A549): 77,277 | 85% survival conc. (MRC-5): 250 µg/mL | LC50/MIC (MRC-5): 7,325

Cc1ncc([N+](=O)[O-])n1CCO [MTZ, metronidazole]
Antibacterial activity in Wayne dormancy model (M. bovis BCG Tokyo 172 [3]): showed antibacterial activity

CCN1C(=O)C=CC1=O [NEM, N-ethylmaleimide]
IC50 [2]: 14.5 µM | IC50 (L. mesenteroides PTA): 50.9 µM

CC(=O)N[C@@H]1[C@@H](O)[C@H](O)[C@@H](CO)O[C@H]1SC(=S)N(C)C [OCT313, 2-acetamido-2-deoxy-β-D-glucopyranosyl N,N-dimethyldithiocarbamate]
MIC (M. tuberculosis H37Rv; [5]): 25 µg/mL (≈ 77.1 µM) | MIC (M. tuberculosis H37Rv; [6]): 25 µg/mL (≈ 77.1 µM) | MIC (M. bovis; [7]): 31.3 µg/mL (≈ 96.5 µM) | MIC (M. bovis BCG Tokyo 172 [1]; [8]): 12.5 µg/mL (≈ 38.5 µM) | MIC (OCT313-resistant BCG; Mycobacterium tuberculosis variant bovis BCG, BCG): > 100 µg/mL | MIC (OCT313-resistant BCG; [8]): > 200 µg/mL | MIC (M. avium 104; [9]): > 100 µg/mL | MIC (M. smegmatis mc^2 155; [10]): > 100 µg/mL | MIC (Staphylococcus aureus; Staphylococcus aureus): > 100 µg/mL | MIC (Escherichia coli DH5α; Escherichia coli): > 100 µg/mL | IC50 [2]: 2.79 µM | Inhibition pattern (Lineweaver-Burk plots) [2]: mixed inhibition | IC50 (L. mesenteroides PTA): > 1000 µM | Antibacterial activity in Wayne dormancy model (M. bovis BCG Tokyo 172 [3]): susceptible to OCT313 in a dose-dependent manner | 85% survival conc. (THP-1): 1,250 μg/mL | Change of 50% lethal concentration (LD50) by sugar derivatization (THP-1): 27 fold | LC50/MIC (THP-1): 356 | 85% survival conc. (A549): 500 µg/mL | Change of 50% lethal concentration (LD50) by sugar derivatization (A549): 196 fold | LC50/MIC (A549): 188 | 85% survival conc. (MRC-5): 2,500 μg/mL | Change of 50% lethal concentration (LD50) by sugar derivatization (MRC-5): 550 fold | LC50/MIC (MRC-5): 242

CO[C@H]1/C=C/O[C@@]2(C)Oc3c(C)c(O)c4c(O)c(c(/C=N/N5CCN(C)CC5)c(O)c4c3C2=O)NC(=O)/C(C)=C\C=C\[C@H](C)[C@H](O)[C@@H](C)[C@@H](O)[C@@H](C)[C@H](OC(C)=O)[C@@H]1C [RFP, rifampicin]
MIC (M. tuberculosis H37Rv; [5]): 0.004 µg/mL (≈ 0.00486 µM) | MIC (M. tuberculosis H37Rv; [6]): 0.004 µg/mL (≈ 0.00486 µM) | MIC (M. bovis; [7]): 0.016 µg/mL (≈ 0.0194 µM) | MIC (M. bovis BCG Tokyo 172 [1]; [8]): 0.01 µg/mL (≈ 0.0122 µM) | MIC (OCT313-resistant BCG; [8]): 0.01 µg/mL (≈ 0.0122 µM) | MIC (M. avium 104; [9]): 0.25 µg/mL (≈ 0.304 µM) | MIC (M. smegmatis mc^2 155; [10]): 1.56 µg/mL (≈ 1.9 µM) | MIC (Staphylococcus aureus; Staphylococcus aureus): 0.02 µg/mL (≈ 0.0243 µM) | MIC (Escherichia coli DH5α; Escherichia coli): 12.5 µg/mL (≈ 15.2 µM) | 85% survival conc. (THP-1): 10 µg/mL | LC50/MIC (THP-1): 16,256 | 85% survival conc. (A549): 10 µg/mL | LC50/MIC (A549): 44,510 | 85% survival conc. (MRC-5): 10 µg/mL | LC50/MIC (MRC-5): 16,250

[H]/N=C(/N)N[C@H]1[C@H](O)[C@@H](O)[C@H](O[C@@H]2O[C@@H](C)[C@](O)(C=O)[C@H]2O[C@@H]2O[C@@H](CO)[C@H](O)[C@@H](O)[C@@H]2NC)[C@@H](N/C(N)=N\[H])[C@@H]1O [SM, streptomycin]
MIC (M. tuberculosis H37Rv; [5]): 0.4 µg/mL (≈ 0.688 µM) | MIC (M. tuberculosis H37Rv; [6]): 0.39 µg/mL (≈ 0.671 µM) | MIC (M. bovis; [7]): 0.2 µg/mL (≈ 0.344 µM) | MIC (M. bovis BCG Tokyo 172 [1]; [8]): 0.2 µg/mL (≈ 0.344 µM) | MIC (OCT313-resistant BCG; [8]): 0.2 µg/mL (≈ 0.344 µM) | MIC (M. avium 104; [9]): 3.13 µg/mL (≈ 5.38 µM) | MIC (M. smegmatis mc^2 155; [10]): 0.39 µg/mL (≈ 0.671 µM) | MIC (Staphylococcus aureus; Staphylococcus aureus): 6.25 µg/mL (≈ 10.7 µM) | MIC (Escherichia coli DH5α; Escherichia coli): 25 µg/mL (≈ 43 µM) | 85% survival conc. (THP-1): 100 µg/mL | LC50/MIC (THP-1): 17,908 | 85% survival conc. (A549): 5,000 μg/mL | LC50/MIC (A549): 31,350 | 85% survival conc. (MRC-5): 1,000 μg/mL | LC50/MIC (MRC-5): 4,175

Dimethyldithiocarbamate [DMDC]
MIC (M. tuberculosis H37Rv): 1.56 µg/mL | MIC (M. bovis): 3.13 µg/mL | MIC (M. bovis BCG Tokyo 172 [1]): 3.13 µg/mL | MIC (OCT313-resistant BCG): 12.5 µg/mL | MIC (M. smegmatis mc^2 155): >100 µg/mL | MIC (Staphylococcus aureus): 25 µg/mL | MIC (Escherichia coli DH5α): 200 µg/mL | Inhibition of PTA enzyme activity (in words) [2]: did not inhibit PTA | Antibacterial activity in Wayne dormancy model [4]: similar
